Assay results: patent US20230174472A1, “THERAPEUTIC USE OF PLEUROMUTILINS” (priority 2020, published 2023)
In brackets after ≈: the same amount, converted by molar mass. Where two headings read alike, the source gives them in different places.

Columns and labels:
[1] = tested on: influenza A/Puerto Rico/8/34 (H1N1); type: in vivo, BALB/c mice
[2] = tested on: alpha coronavirus 229E (HCoV-229E); experiment: inhibition of virus-induced CPE, CoV229E in MRC-5 cells (XTT); type: cell-based; conditions: for EC50: Human coronavirus 229E, MOI 0.001, read-out: EC50
Protocol: The antiviral compound Remdesivir served as positive control.
Lefamulin (as acetate) was evaluated using different treatment conditions of 4 h, 1 h or 0 h incubation prior to virus addition and addition 1 h after infection For this particular set of experiments, coronavirus was diluted 1:200 in assay medium and added at 100 μL/well to achieve approximately 90% cell killing in the untreated virus control wells (MOI of 0.001).

[3] = tested on: Measles virus (strain Edmonston); experiment: microbe, parasite or virus in culture; type: cell-based
[4] = tested on: Dengue virus (strain DENV2New Guinea); experiment: inhibition of virus-induced CPE, Dengue virus in Huh7 cells; type: cell-based; conditions: Huh-7, 4 h pre-incubation
Protocol: The Dengue virus strain DENV2New Guinea was obtained from ATCC (VR-1584) and was grown in Rhesus monkey kidney cells for the production of stock virus pools.
(§1) Cell viability determination as well as EC50 and TC50 calculations were performed as described in Examples 6 and 8.

[5] = tested on: Zika virus (strain ZIKVPRVABC59); experiment: inhibition of virus-induced CPE, Zika virus in Huh7 cells; type: cell-based; conditions: Huh-7, 4 hour pretreatment, MOI 0.001, Lefamulin as acetate
Protocol: The Zika virus strain PRVABC59 obtained from ATCC (catalog VR-1843) […] was grown in Rhesus monkey kidney cells for the production of stock virus pools.
as §1

[6] = tested on: human rhinovirus strain HRV16 strain 11757; experiment: inhibition of virus-induced CPE, human rhinovirus in H1-HeLa cells; type: cell-based; conditions: Human rhinovirus sp., 4 hour pretreatment, MOI 0.0005, Lefamulin as acetate
Protocol: as §1

[7] = tested on: influenza virus (strain A/PR/8/34); experiment: inhibition of virus-induced CPE, influenza virus in MDCK cells; type: cell-based; conditions: unidentified influenza virus, PR/8, MDCK, read-out: maximum inhibition of the influenza mediated CPE
[8] = tested on: MRC-5 cells; conditions: for cytotoxic effect on the viability of the cell control: Example 6
[9] = tested on: human respiratory syncytial virus (strain RSVA2); conditions: Example 8
[10] = tested on: MDCK cells
[11] = in vitro; conditions: human
[12] = in vitro; conditions: dog
[13] = cell viability of uninfected HeLa cells; conditions: human
[14] = cell viability of uninfected Huh7 cells; conditions: human
[15] = tested on: HEp2 cells; experiment: cell viability of uninfected HEp2 cells (XTT); conditions: Example 8
[16] = tested on: human respiratory syncytial virus (strain RSVA2); experiment: inhibition of virus-induced CPE, RSVA2 in HEp2 cells (XTT); conditions: human respiratory syncytial virus
[17] = tested on: mice challenged with lipopolysaccharide (LPS); experiment: LPS induced lung neutrophilia model, BALF cell counts (Example 2); conditions: 4 h post LPS
[18] = tested on: mice challenged with lipopolysaccharide (LPS); experiment: LPS induced lung neutrophilia model, BALF cell counts 4 h post LPS (Example 1)
[19] = tested on: TNF-α, IL-6, IL-1β, GM-CSF, CXCL1, CXCL2, CCL2, MMP9 in lung homogenate; experiment: LPS induced lung neutrophilia model, marker concentrations in lung homogenate (Example 2)
[20] = tested on: HeLa cells; experiment: cell viability of uninfected HeLa cells; conditions: Example 11
[21] = tested on: Huh7 cells; experiment: cell viability of uninfected Huh7 cells; conditions: Example 12 (Dengue assay)
[22] = high dose: 105 mg/kg/day SC in three injections until day 3, then 70 mg/kg twice daily
[23] = high dose, Day 6, vs vehicle treated control
[24] = Lefamulin 35, 70 and 140 mg/kg SC half an hour prior to IN LPS, vs LPS challenge (p<0.05)
[25] = 10, 30, or 100 mg/kg SC pre-treatment
[26] = 10, 30, or 100 mg/kg SC pre-treatment, 4 h post LPS

Structure (SMILES): C=C[C@]1(C)C[C@@H](OC(=O)CS[C@@H]2CC[C@@H](N)C[C@H]2O)[C@]2(C)C(C)CC[C@]3(CCC(=O)[C@H]32)[C@@H](C)[C@@H]1O (stereo partly drawn) [Lefamulin, 14-O-{[(1R, 2R, 4R)-4-amino-2-hydroxy-cyclohexylsulfanyl]-acetyl}-mutilin]
- B cells (BALF) ([1]; Day 6): reduction was only significant at the highest dose
- infiltration of CD4 cells in the lung ([1]; Day 6, both doses tested): decreased
- infiltration of CD8 cells in the lung ([1]; Day 6, both doses tested): decreased
- infiltration of NK cells in the lung ([1]; Day 6, both doses tested): decreased
- neutrophils infiltration (BALF) ([1]; Day 6, both doses tested): significantly decreased
- total immune cell infiltration in the lung (BALF flow cytometry) ([1]; Day 6, both doses tested, p<0.05): significantly decreased
- inflammatory monocyte infiltration in the lung ([1]; Day 6, higher dose): significantly reduced
- lung viral titres (TCID50 on MDCK cells) ([1]; Lefamulin at both doses, Oseltamivir positive control, Day 3 and Day 6, vs vehicle treated control): reduced
- bodyweight ([1]; at the investigated doses (low and high dose SC)): did not have a significant effect
- clinical scores compared to vehicle [1, 22]: increase
- survival compared to vehicle [1, 22]: decrease
- alveolar inflammation (histopathology) [1, 23]: significant reduction
- bronchial degeneration (histopathology) [1, 23]: significant reduction
- overall histopathology score [1, 23]: significant reduction
- macroscopically evaluated lung consolidation ([1]; low dose: 35 mg/kg SC twice daily, Day 6): significant improvement
- survival until day 6 ([1]; lower dose: 35 mg/kg SC twice daily, Day -1 to Day 6): 90%
- reduction of viral CPE ([2]; 10 µM): 91.82%
- reduction of viral CPE ([2]; 1 h, 50 µM): 86.83%
- EC50 ([2]; MRC5, 1 h, Example 7, 1 h post-infection): 15.1 µM
- EC50 ([2]; MRC5, Example 6, MRC-5 cells, 4 h incubation prior to virus, 6 days post-infection, Lefamulin as acetate, Tiamulin as fumarate): 3.87 µM
- EC50 ([2]; MRC5, Example 7, 0 h pretreatment): 3.08 µM
- EC50 ([2]; MRC5, Example 7, 1 h pretreatment): 2.16 µM
- EC50 ([2]; MRC5, Example 7, 4 h pretreatment): 2.18 µM
- EC50 ([3]; Measles morbillivirus, HeLa): 0.89 µM
- EC50 ([4]; MOI 0.001, Lefamulin as acetate): 6.79 µM
- EC50 [5]: 2.78 µM
- EC50 [6]: 9.34 µM
- inhibition at 5 µM [7]: 18.4%
- cytotoxic effect on the viability of the cell control ([8]; 10 μM): no cytotoxic effect
- cytotoxic effect on the viability of the cell control ([8]; 50 μM): cytotoxic effect
- CC50 ([8]; human, 6 days): > 50 µM
- reduction of viral CPE ([9]; 10 μM): 92.17%
- reduction of viral CPE ([9]; 50 μM): 100%
- cytotoxicity ([10]; 50 μM): cytotoxicity was observed
- concentrations cytotoxic to MDCK cells ([10]; Example 15): greater than 23 μM
- CC50 [11]: 24.1 µM
- CC50 [12]: 23.8 µM
- CC50 at 6 days [13]: 72.7 µM
- CC50 at 6 days ([14]; TC50, Example 12 (Dengue assay)): 23.3 µM
- CC50 at 6 days ([14]; TC50, Example 13 (Zika assay)): 23.4 µM
- cytotoxic effect on the viability of the cell control ([15]; 10 μM and 50 μM): no cytotoxic effect
- cytotoxic effect on the viability of the cell control ([15]; 100 μM): cytotoxic effect
- EC50 ([16]; HEp-2, Example 8, HEp2 cells, 4 h incubation prior to virus, MOI 0.001, 6 days post-infection, Lefamulin as acetate, Tiamulin as fumarate): 5.34 µM
- EC50 ([16]; HEp-2, Example 9, MOI 0.0004): 2.34 µM
- EC50 ([16]; HEp-2, Example 9, MOI 0.0008): 28.7 µM
- EC50 ([16]; HEp-2, Example 9, MOI 0.001): 32.3 µM
- EC50 ([16]; HEp-2, Example 9, MOI 0.003): > 63.2 µM
- total cell counts in BALF, significance of change ([17]; 100 mg/kg SC, p<0.05): statistically significant
- total cell counts in BALF ([17]; 10, 30, or 100 mg/kg SC 30 min before LPS): reduced dose-dependently
- lymphocyte cell counts in BALF ([17]; 10, 30 and 100 mg/kg SC): not significantly affected
- macrophage cell counts in BALF ([17]; 10, 30 and 100 mg/kg SC): not significantly affected
- neutrophil cells in BALF ([17]; 10, 30 and 100 mg/kg SC): dose-dependent and significant reduction
- neutrophil cell count in BALF [18, 24]: statistically significant reduction
- total cell count in BALF [18, 24]: statistically significant reduction
- cell influx (BALF) ([18]; highest dose of 140 mg/kg SC): Almost complete impairment
- MMP9 concentrations in lung homogenate ([19]; 10 mg/kg SC): did not alter
- reduction of MMP9 levels in lung homogenate ([19]; 30 mg/kg SC): 26%
- reduction of MMP9 levels in lung homogenate ([19]; 100 mg/kg SC): 53%
- reduction of IL-1β level in lung homogenate ([19]; 100 mg/kg SC pre-treatment): 24%
- CXCL1 level in lung homogenate [19, 25]: significantly reduced
- CXCL2 level in lung homogenate [19, 25]: significantly reduced
- reduction of IL-6 level in lung homogenate [19, 26]: ≥ 50%
- reduction of TNF-α level in lung homogenate [19, 26]: ≥ 50%
- GM-CSF in lung homogenate ([19]; all doses tested (10, 30, 100 mg/kg SC)): almost completely inhibited
- LPS-induced CCL2 increase in the lung homogenate ([19]; all investigated doses (10, 30, 100 mg/kg SC), Valnemulin particularly at 10 and 30 mg/kg): completely inhibited

Structure (SMILES): NC(=O)c1ncn([C@@H]2O[C@H](CO)[C@@H](O)[C@H]2O)n1 [Ribavirin, reference compound]
- EC50 ([3]; HeLa cells, 4 h pre-incubation, MOI 0.008): 1.88 µg/mL
- EC50 ([4]; MOI 0.001): 4.73 µg/mL
- TC50 [20]: 21.6 µg/mL (≈ 88.4 µM)
- TC50 [21]: 48.5 µg/mL (≈ 199 µM)
